The values below come from patent US10781184B2, “Substituted benzazinones as antibacterial compounds” (GlaxoSmithKline Intellectual Property Development Limited, priority 2015, dated 2020).

The target in one assay is T1, Untagged E. coli LpxC (Escherichia coli, UniProt P0A725).
T1 construct: Untagged E. Coli LpxC 1-300 was expressed in E. Coli; made in house; host or cells: E. coli
T1 sequence (P0A725 1-300): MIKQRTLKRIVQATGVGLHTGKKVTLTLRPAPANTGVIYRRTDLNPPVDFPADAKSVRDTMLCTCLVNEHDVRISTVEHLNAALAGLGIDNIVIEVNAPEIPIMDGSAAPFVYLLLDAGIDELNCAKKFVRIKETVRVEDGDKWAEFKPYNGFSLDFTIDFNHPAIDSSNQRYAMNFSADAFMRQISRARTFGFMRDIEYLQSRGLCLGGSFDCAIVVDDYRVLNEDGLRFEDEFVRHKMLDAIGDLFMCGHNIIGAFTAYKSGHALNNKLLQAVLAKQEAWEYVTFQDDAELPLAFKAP
The assay is described as follows: E. coli Enzyme Assay (LpxC deacetylase, RapidFire MS). Particulars: read-out: E. coli plC50 (converted). The format is biochemical. From the text: Untagged E. Coli LpxC 1-300 was expressed in E. Coli and purified with NiNTA Agarose, Superdex 200 and Mono Q columns. UDP-3-O—(R-3-hydroxymyristoyl)-N-Acetylglucosamine Substrate was obtained through a custom synthesis from Alberta Innovates Technology Futures. Method Untagged E. coli LpxC is a deacetylase, which can remove an acetyl-group from UDP-3-O—(R-3-hydroxymyristoyl)-N-Acetylglucosamine (m/z 832.1-385) to result in a product (m/z 790.3→385) that is 42 Daltons less than the original acetylated substrate. Direct detection of the deacetylated product and acetylated substrate was accomplished through an Agilent RapidFire v. 3.4/Sciex 4000 Q-Trap RF-MS instrument. […] Following a 30 minute preincubation, 20 μL of 2× substrate [2 μM final concentration; 39.984 mL buffer+16 μL of UDP-3-O—(R-3-hydroxymyristoyl)-N-Acetylglucosamine (at 10 mM Stock)] was added and incubated for 25 minutes. The reaction was quenched by the addition of 10 μL of 1N HCl. The plate was loaded onto the Agilent RapidFire v. 3.4/Sciex 4000 Q-Trap RF-MS instrument for analysis [C4 SPE cartridge, 2 mM ammonium acetate in 100 v/v water as the aqueous eluent and 5 mM ammonium acetate in 25% v/v/25% v/v/50% v/v acetonitrile/acetone/water as the organic eluent]. For dose response experiments % conversion were determined from the substrate and product extracted ion chromatogram (XIC) areas and normalized to the assay high and low controls. Normalized data were fit by ActivityBase XE using the equation y=a+(b−a)/(1+(10^x/10^c)^d), where a is the minimum % activity, b is the maximum % activity, c is the pIC50, and d is the Hill slope. ^1Langsdorf, Erik F. et al. Screening for Antibacterial Inhibitors of the UDP-3-O—(R-3-Hydroxymyristoyl)-N-Acetylglucosamine Deacetylase (LpxC) Using a High-Throughput Mass Spectroscopy Assay. See, J. Biomol. Screen. 2010, 15, 52-61. Minimum Inhibitory Concentration Assay

In a further assay the test system is E. coli 7623. The assay is described as follows: Minimum Inhibitory Concentration Assay (broth microdilution, CLSI). The format is cell-based. The note with it: Escherichia coli; strain 7623, broth microdilution; read-out: E. coli 7623 MIC. The essentials: (§1)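 CLSI broth microdilution for aerobic bacteria; compounds serially diluted in the recommended broth over a final range of 0.125–128 mcg/mL, final DMSO below 1%. MIC read as the lowest concentration inhibiting visible growth.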
For orientation: In broth dilution the organism is exposed to a series of concentrations in liquid medium.

The subject of a further assay is K. pneumoniae 1161486. Described as above. Format: cell-based. Particulars: Klebsiella pneumoniae; strain 1161486, broth microdilution; read-out: K. pneumoniae 1161486 MIC. The essentials: as §1
The test system of a further assay is P. aeruginosa PA01. The description is as above. Format: cell-based. The note with it: Pseudomonas aeruginosa; strain PA01, broth microdilution; read-out: P. aeruginosa PA01 MIC. The gist of the method:
as §1

Converted amounts (≈) assume the structure as drawn.

For the molecule `COc1ccc(-c2ccc3c(=O)n(CC[C@](C)(C(=O)NO)S(C)(=O)=O)cnc3c2)cc1` [Example 3, (R)—N-hydroxy-4-(7-(4-methoxyphenyl)-4-oxoquinazolin-3(4H)-yl)-2-methyl-2-(methylsulfonyl)butanamide], on Untagged E. coli LpxC, the IC50 was 1 nM. The minimum inhibitory concentration (MIC) came to 0.06 µg/mL (≈ 0.135 µM) in the assay with E. coli 7623, 0.5 µg/mL (≈ 1.12 µM) with K. pneumoniae 1161486 and 2 µg/mL (≈ 4.49 µM) with P. aeruginosa PA01.
Take `C[C@@](CCn1ccc2cc(-c3ccc(CNC4CC4)cc3F)ccc2c1=O)(C(=O)NO)S(C)(=O)=O` [Example 76, (2R)-4-(6-{4-[(cyclopropylamino)methyl]-2-fluorophenyl}-1-oxo-1,2-dihydroisoquinolin-2-yl)-N-hydroxy-2-methanesulfonyl-2-methylbutanamide]: the MIC was below 0.03 µg/mL with E. coli 7623, 0.125 µg/mL (≈ 0.249 µM) in the assay on K. pneumoniae 1161486 and 0.5 µg/mL (≈ 0.997 µM) in the assay on P. aeruginosa PA01.
The corresponding values for `CN(C)N(C)Cc1ccc(-c2ccc3c(=O)n(CC[C@](C)(C(=O)NO)S(C)(=O)=O)ccc3c2)cc1` [Example 77, (2R)—N-hydroxy-2-methanesulfonyl-2-methyl-4-(1-oxo-6-{4-[(1,2,2-trimethylhydrazin-1-yl)methyl]phenyl}-1,2-dihydroisoquinolin-2-yl)butanamide] are 0.125 µg/mL (≈ 0.25 µM), 0.25 µg/mL (≈ 0.499 µM) and 2 µg/mL (≈ 4 µM).
On to `CONCc1ccc(-c2ccc3c(=O)n(CC[C@](C)(C(=O)NO)S(C)(=O)=O)ccc3c2)cc1` [Example 78, (2R)—N-hydroxy-2-methanesulfonyl-4-(6-{4-[(methoxyamino)methyl]phenyl}-1-oxo-1,2-dihydroisoquinolin-2-yl)-2-methylbutanamide], for which the values for the MIC with E. coli 7623, with K. pneumoniae 1161486 and with P. aeruginosa PA01 were 0.063 µg/mL (≈ 0.133 µM), 0.125 µg/mL (≈ 0.264 µM) and 4 µg/mL (≈ 8.45 µM), respectively.
Turning to `CN(C)NCc1ccc(-c2ccc3c(=O)n(CC[C@](C)(C(=O)NO)S(C)(=O)=O)ccc3c2)cc1` [Example 79, (2R)-4-(6-{4-[(2,2-dimethylhydrazin-1-yl)methyl]phenyl}-1-oxo-1,2-dihydroisoquinolin-2-yl)-N-hydroxy-2-methanesulfonyl-2-methylbutanamide], the MIC in the assay on E. coli 7623 stood at 0.125 µg/mL (≈ 0.257 µM); in the assay on K. pneumoniae 1161486, 0.5 µg/mL (≈ 1.03 µM); in the assay with P. aeruginosa PA01, 8 µg/mL (≈ 16.4 µM).
As for `C[C@@](CCn1ccc2cc(-c3ccc(CCN4CCOCC4)cc3)ccc2c1=O)(C(=O)NO)S(C)(=O)=O` [Example 80, (2R)—N-hydroxy-2-methanesulfonyl-2-methyl-4-(6-{4-[2-(morpholin-4-yl)ethyl]phenyl}-1-oxo-1,2-dihdroisoquinolin-2-yl)butanamide], the MIC is 0.063 µg/mL (≈ 0.119 µM) with E. coli 7623, 0.25 µg/mL (≈ 0.474 µM) with K. pneumoniae 1161486 and 1 µg/mL (≈ 1.9 µM) with P. aeruginosa PA01.
As for `C[C@@](CCn1ccc2cc(-c3ccc(CN4CCCC4=O)cc3)ccc2c1=O)(C(=O)NO)S(C)(=O)=O` [Example 81, (2R)—N-hydroxy-2-methanesulfonyl-2-methyl-4-(1-oxo-6-{4-[(2-oxopyrrolidin-1-yl)methyl]phenyl}-1,2-dihydroisoquinolin-2-yl)butanamide], the MIC turned out to be 0.25 µg/mL (≈ 0.489 µM) with E. coli 7623, 0.5 µg/mL (≈ 0.977 µM) in the assay with K. pneumoniae 1161486 and 1 µg/mL (≈ 1.95 µM) with P. aeruginosa PA01.
Consider `CN(CCOc1ccc(-c2ccc3c(=O)n(CC[C@](C)(C(=O)NO)S(C)(=O)=O)ccc3c2)cn1)C1CC1.O=C(O)C(F)(F)F` [Example 82, (2R)-4-[6-(6-{2-[cyclopropyl(methyl)amino]ethoxy}pyridin-3-yl)-1-oxo-1,2-dihydroisoquinolin-2-yl]-N-hydroxy-2-methanesulfonyl-2-methylbutanamide], for which the MIC in the assay on E. coli 7623 turned out to be 0.25 µg/mL; in the assay with K. pneumoniae 1161486, 0.25 µg/mL; in the assay with P. aeruginosa PA01, 4 µg/mL.
As to `COc1ccc(-c2ccc3c(=O)n(CC[C@](C)(C(=O)NO)S(C)(=O)=O)cc(F)c3c2)cc1` [Example 83, (2R)-4-[4-fluoro-6-(4-methoxyphenyl)-1-oxo-1,2-dihydroisoquinolin-2-yl]-N-hydroxy-2-methanesulfonyl-2-methylbutanamide], the MIC with E. coli 7623 was below 0.03 µg/mL; with K. pneumoniae 1161486 it was 0.25 µg/mL (≈ 0.541 µM); in the assay with P. aeruginosa PA01 it was 8 µg/mL (≈ 17.3 µM).
The like results for `C[C@@](CCn1cc(F)c2cc(-c3ccccc3)ccc2c1=O)(C(=O)NO)S(C)(=O)=O` [Example 84, (2R)-4-(4-fluoro-1-oxo-6-phenyl-1,2-dihydroisoquinolin-2-yl)-N-hydroxy-2-methanesulfonyl-2-methylbutanamide] were, in that order, 0.5 µg/mL (≈ 1.16 µM), 0.25 µg/mL (≈ 0.578 µM) and 4 µg/mL (≈ 9.25 µM).
The like results for `CN(C)Cc1ccc(-c2ccc3c(=O)n(CC[C@](C)(C(=O)NO)S(C)(=O)=O)cc(F)c3c2)cc1` [Example 85, (2R)-4-(6-{4-[(dimethylamino)methyl]phenyl}-4-fluoro-1-oxo-1,2-dihydroisoquinolin-2-yl)-N-hydroxy-2-methanesulfonyl-2-methylbutanamide] were, in that order, 0.5 µg/mL (≈ 1.02 µM), 1 µg/mL (≈ 2.04 µM) and 4 µg/mL (≈ 8.17 µM).
The corresponding values for `CCOc1ccc(-c2ccc3c(=O)n(CC[C@](C)(C(=O)NO)S(C)(=O)=O)cc(F)c3c2)cn1` [Example 86, (2R)-4-[6-(6-ethoxypyridin-3-yl)-4-fluoro-1-oxo-1,2-dihydroisoquinolin-2-yl]-N-hydroxy-2-methanesulfonyl-2-methylbutanamide] are below 0.03 µg/mL, 0.25 µg/mL (≈ 0.524 µM) and 16 µg/mL (≈ 33.5 µM).
Regarding `COc1ccc(-c2ccc3c(=O)n(CC[C@](C)(C(=O)NO)S(C)(=O)=O)cc(F)c3c2)cn1` [Example 87, (2R)-4-[4-fluoro-6-(6-methoxypyridin-3-yl)-1-oxo-1,2-dihdroisoquinolin-2-yl]-N-hydroxy-2-methanesulfonyl-2-methylbutanamide], the MIC turned out to be 0.06 µg/mL (≈ 0.129 µM) in the assay with E. coli 7623, 0.25 µg/mL (≈ 0.539 µM) with K. pneumoniae 1161486 and 8 µg/mL (≈ 17.3 µM) in the assay with P. aeruginosa PA01.
The like results for `COCCNCc1ccc(-c2ccc3c(=O)n(CC[C@](C)(C(=O)NO)S(C)(=O)=O)cc(F)c3c2)c(F)c1` [Example 88, (2R)-4-[4-fluoro-6-(2-fluoro-4-{[(2-methoxyethyl)amino]methyl}phenyl)-1-oxo-1,2-dihydroisoquinolin-2-yl]-N-hydroxy-2-methanesulfonyl-2-methylbutanamide] were, in that order, 0.125 µg/mL (≈ 0.233 µM), 0.25 µg/mL (≈ 0.465 µM) and 2 µg/mL (≈ 3.72 µM).
In the case of `CN(C)c1ccc(-c2ccc3c(=O)n(CC[C@](C)(C(=O)NO)S(C)(=O)=O)cc(F)c3c2)cn1` [Example 90, (2R)-4-{6-[6-(dimethylamino)pyridin-3-yl]-4-fluoro-1-oxo-1,2-dihydroisoquinolin-2-yl}-N-hydroxy-2-methanesulfonyl-2-methylbutanamide], the minimal inhibitory concentration (MIC) in the assay on E. coli 7623 was 0.063 µg/mL (≈ 0.132 µM); in the assay with K. pneumoniae 1161486, 1 µg/mL (≈ 2.1 µM); with P. aeruginosa PA01, 32 µg/mL (≈ 67.2 µM).
The corresponding values for `C[C@@](CCN1CCc2cc(-c3ccc(CN4CCOCC4)cc3)ccc2C1=O)(C(=O)NO)S(C)(=O)=O` [Example 92, (2R)—N-hydroxy-2-methanesulfonyl-2-methyl-4-(6-{4-[(morpholin-4-yl)methyl]phenyl}-1-oxo-1,2,3,4-tetrahydroisoquinolin-2-yl)butanamide] are 0.5 µg/mL (≈ 0.97 µM), 0.5 µg/mL (≈ 0.97 µM) and 4 µg/mL (≈ 7.76 µM).
Regarding `C[C@@](CCn1ccc2cc(-c3ccc(CCO)cc3)ccc2c1=O)(C(=O)NO)S(C)(=O)=O` [Example 93, (2R)—N-hydroxy-4-{6-[4-(2-hydroxyethyl)phenyl]-1-oxo-1,2-dihydroisoquinolin-2-yl}-2-methanesulfonyl-2-methylbutanamide], the minimum inhibitory concentration (MIC) stood at 0.063 µg/mL (≈ 0.137 µM) in the assay with E. coli 7623, 0.125 µg/mL (≈ 0.273 µM) in the assay on K. pneumoniae 1161486 and 0.5 µg/mL (≈ 1.09 µM) with P. aeruginosa PA01.
The like results for `CN(C)CC(=O)OCCc1ccc(-c2ccc3c(=O)n(CC[C@](C)(C(=O)NO)S(C)(=O)=O)ccc3c2)cc1` [Example 94, 2-(4-{2-[(3R)-3-(hydroxycarbamoyl)-3-methanesulfonyl-3-methylpropyl]-1-oxo-1,2-dihydroisoquinolin-6-yl}phenyl)ethyl 2-(dimethylamino)acetate] were, in that order, 0.125 µg/mL (≈ 0.23 µM), 0.25 µg/mL (≈ 0.46 µM) and 2 µg/mL (≈ 3.68 µM).

A word on the MIC: it is the least concentration at which growth counts as inhibited.
